Our source for the IC50 values is paper PMC5378356, “Differential inhibition of activity, activation and gene expression of MMP-9 in THP-1 cells by azithromycin and minocycline versus bortezomib: A comparative study” (PLoS ONE, 2017).

The target of the assay is T1, matrix metalloproteinase-9 (MMP-9, gelatinase B) (Homo sapiens, UniProt P14780).
T1 construct: gene MMP9
The assay can be described thus: fluorogenic DQ-gelatin degradation assay with active MMP-9; also gelatin zymography with compound in the incubation buffer. The format is biochemical.

Broadly, the pIC50 is the IC50 on a negative log10 scale, so that one unit is a factor of ten.

pIC50: −log10 of the molar value.

T1 sequence (P14780 107-707): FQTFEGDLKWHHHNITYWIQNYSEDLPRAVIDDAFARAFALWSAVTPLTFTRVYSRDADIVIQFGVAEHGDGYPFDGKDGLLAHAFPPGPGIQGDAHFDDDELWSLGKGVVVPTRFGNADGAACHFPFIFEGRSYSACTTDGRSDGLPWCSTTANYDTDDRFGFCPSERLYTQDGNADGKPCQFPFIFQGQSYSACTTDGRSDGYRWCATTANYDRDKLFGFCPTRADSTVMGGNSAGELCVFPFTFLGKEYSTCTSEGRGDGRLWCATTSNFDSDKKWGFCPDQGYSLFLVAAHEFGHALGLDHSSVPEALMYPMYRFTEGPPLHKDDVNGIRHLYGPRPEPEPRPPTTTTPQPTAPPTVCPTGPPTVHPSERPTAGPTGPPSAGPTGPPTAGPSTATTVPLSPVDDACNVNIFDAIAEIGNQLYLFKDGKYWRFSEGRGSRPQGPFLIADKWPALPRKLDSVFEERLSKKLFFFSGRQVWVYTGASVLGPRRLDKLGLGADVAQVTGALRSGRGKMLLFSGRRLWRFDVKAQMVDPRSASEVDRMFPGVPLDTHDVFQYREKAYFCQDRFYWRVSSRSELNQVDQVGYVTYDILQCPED

For `CN(C)c1ccc(O)c2c1C[C@H]1C[C@H]3[C@H](N(C)C)C(O)=C(C(N)=O)C(=O)[C@@]3(O)C(O)=C1C2=O` [minocycline], the pIC50 was 3.57.
